Usually speed of sound stands for the propagation velocity of pressure waves in the medium. What is called mass density is the mass of a sample divided by its volume.

Among the data in the NIST ThermoML archive (doi:10.1021/je200146j) are speed of sound and mass density values, retold here.

The structures appear in SMILES notation. ± gives the expanded uncertainty stated by the source.

The data set in a line: mn = molality of the nth substance listed, in mol/kg. Conditions: 101 kPa, Liquid, m1 = 0.512; for speed of sound: Sing-around technique in a fixed-path interferometer; for mass density: Vibrating tube method.

In the case of `O=[N+]([O-])[O-].[K+]` [potassium nitrate] + O, the speed of sound runs as follows: (298.15 K) 1517.8 ± 4.1 m/s; (303.15 K) 1526.8 ± 4.1 m/s; (308.15 K) 1536.3 ± 4.1 m/s; (313.15 K) 1544.4 ± 4.1 m/s; (318.15 K) 1551.1 ± 4.1 m/s; (323.15 K) 1556.6 ± 4.1 m/s. Moreover, the mass density turned out to be 1027.98 ± 1 kg/m3 (298.15 K); 1026.22 ± 1 kg/m3 (303.15 K); 1024.1 ± 1 kg/m3 (308.15 K); 1022.05 ± 1 kg/m3 (313.15 K); 1020.2 ± 1 kg/m3 (318.15 K); 1018.2 ± 1 kg/m3 (323.15 K).
With `O=S(=O)([O-])[O-].[K+].[K+]` [potassium sulfate] + O, the speed of sound is, setting by setting: (298.15 K) 1563.6 ± 4.1 m/s; (303.15 K) 1571.6 ± 4.1 m/s; (308.15 K) 1580.3 ± 4.1 m/s; (313.15 K) 1587.6 ± 4.1 m/s; (318.15 K) 1593.5 ± 4.1 m/s; (323.15 K) 1598.3 ± 4.1 m/s. Also, the mass density by setting is: (298.15 K) 1063.81 ± 1 kg/m3; (303.15 K) 1062.02 ± 1 kg/m3; (308.15 K) 1060.06 ± 1 kg/m3; (313.15 K) 1057.74 ± 1 kg/m3; (318.15 K) 1055.14 ± 1 kg/m3; (323.15 K) 1052.95 ± 1 kg/m3.
